Results on 14 compounds are retold here after patent US20250051344A1, “BIFUNCTIONAL SELECTIVE DEGRADERS OF SMARCA2 AND THERAPEUTIC USES THEREOF” (Nurix Therapeutics, Inc., priority 2023, published 2025).

One assay deals with T1, SMARCA2 (Homo sapiens, UniProt P51531).
T1 construct: endogenous in cells
Kind of assay: SMARCA2 Cellular Degradation Assay (Western blot analysis on Jess platform). The format is cell-based. The conditions noted are these: for DC50 / Dmax: cellular degradation; for Fold Selectivity SMARCA4/2: ratio DC50 SMARCA4 / DC50 SMARCA2. A digest of the protocol: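 Lysates of cells extracted from tumors were prepared in supplemented RIPA buffer, and 5 μg total protein per capillary was analysed by capillary Western (Jess) with anti-SMARCA2 and anti-β-actin antibodies. SMARCA2 electropherogram area was background-subtracted, normalized to actin, and expressed as percent remaining versus vehicle control.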

The target of a further assay is T2, SMARCA4 (Homo sapiens, UniProt P51532).
T2 construct: endogenous in cells
T2 sequence (P51532 whole entry, species assumed): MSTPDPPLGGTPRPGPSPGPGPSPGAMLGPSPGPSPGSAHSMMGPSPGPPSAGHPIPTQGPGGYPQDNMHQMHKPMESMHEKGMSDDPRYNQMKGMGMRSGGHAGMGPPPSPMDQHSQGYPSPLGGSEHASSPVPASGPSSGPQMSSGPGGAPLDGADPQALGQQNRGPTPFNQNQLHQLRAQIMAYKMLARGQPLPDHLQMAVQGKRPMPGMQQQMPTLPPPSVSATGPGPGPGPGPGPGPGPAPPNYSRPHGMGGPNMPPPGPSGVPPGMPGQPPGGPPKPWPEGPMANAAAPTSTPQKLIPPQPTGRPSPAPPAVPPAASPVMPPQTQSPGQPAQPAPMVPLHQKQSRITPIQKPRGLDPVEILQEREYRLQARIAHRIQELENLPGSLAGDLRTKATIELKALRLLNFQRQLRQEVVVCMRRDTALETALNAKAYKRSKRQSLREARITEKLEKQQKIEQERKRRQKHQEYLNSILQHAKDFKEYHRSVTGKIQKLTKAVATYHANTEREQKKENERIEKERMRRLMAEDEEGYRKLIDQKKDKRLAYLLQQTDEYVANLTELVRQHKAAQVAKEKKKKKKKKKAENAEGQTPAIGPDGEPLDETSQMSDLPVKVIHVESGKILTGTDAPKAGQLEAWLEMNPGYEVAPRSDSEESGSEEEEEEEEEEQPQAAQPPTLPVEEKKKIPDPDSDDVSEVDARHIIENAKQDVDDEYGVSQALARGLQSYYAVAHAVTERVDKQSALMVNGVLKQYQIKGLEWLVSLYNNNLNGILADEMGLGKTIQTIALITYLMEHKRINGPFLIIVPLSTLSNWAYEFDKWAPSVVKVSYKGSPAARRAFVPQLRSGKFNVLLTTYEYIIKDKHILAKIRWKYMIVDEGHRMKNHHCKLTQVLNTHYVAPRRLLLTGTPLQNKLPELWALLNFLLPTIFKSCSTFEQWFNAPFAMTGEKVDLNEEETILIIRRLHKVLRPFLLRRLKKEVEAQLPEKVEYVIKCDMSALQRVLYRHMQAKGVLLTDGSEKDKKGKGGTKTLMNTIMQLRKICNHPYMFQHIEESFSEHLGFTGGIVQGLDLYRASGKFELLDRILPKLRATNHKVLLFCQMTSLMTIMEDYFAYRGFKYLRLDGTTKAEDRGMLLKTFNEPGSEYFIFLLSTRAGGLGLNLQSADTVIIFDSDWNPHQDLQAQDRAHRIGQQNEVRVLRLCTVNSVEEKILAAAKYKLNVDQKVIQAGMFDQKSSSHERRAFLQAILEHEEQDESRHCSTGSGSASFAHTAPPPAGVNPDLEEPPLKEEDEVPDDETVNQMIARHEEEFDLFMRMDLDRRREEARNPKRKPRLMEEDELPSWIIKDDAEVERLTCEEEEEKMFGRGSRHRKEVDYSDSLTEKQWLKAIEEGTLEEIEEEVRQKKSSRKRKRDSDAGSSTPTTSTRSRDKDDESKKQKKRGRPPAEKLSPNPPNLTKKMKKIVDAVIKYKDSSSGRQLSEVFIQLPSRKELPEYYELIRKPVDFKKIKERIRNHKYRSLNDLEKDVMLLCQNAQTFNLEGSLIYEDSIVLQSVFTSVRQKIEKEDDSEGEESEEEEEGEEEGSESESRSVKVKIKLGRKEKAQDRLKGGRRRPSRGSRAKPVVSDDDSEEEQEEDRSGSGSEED
Kind of assay: Cellular degradation assay, SMARCA4 (Table 1). The format is cell-based.

The structures appear in SMILES notation.

T1 sequence (P51531 whole entry, species assumed): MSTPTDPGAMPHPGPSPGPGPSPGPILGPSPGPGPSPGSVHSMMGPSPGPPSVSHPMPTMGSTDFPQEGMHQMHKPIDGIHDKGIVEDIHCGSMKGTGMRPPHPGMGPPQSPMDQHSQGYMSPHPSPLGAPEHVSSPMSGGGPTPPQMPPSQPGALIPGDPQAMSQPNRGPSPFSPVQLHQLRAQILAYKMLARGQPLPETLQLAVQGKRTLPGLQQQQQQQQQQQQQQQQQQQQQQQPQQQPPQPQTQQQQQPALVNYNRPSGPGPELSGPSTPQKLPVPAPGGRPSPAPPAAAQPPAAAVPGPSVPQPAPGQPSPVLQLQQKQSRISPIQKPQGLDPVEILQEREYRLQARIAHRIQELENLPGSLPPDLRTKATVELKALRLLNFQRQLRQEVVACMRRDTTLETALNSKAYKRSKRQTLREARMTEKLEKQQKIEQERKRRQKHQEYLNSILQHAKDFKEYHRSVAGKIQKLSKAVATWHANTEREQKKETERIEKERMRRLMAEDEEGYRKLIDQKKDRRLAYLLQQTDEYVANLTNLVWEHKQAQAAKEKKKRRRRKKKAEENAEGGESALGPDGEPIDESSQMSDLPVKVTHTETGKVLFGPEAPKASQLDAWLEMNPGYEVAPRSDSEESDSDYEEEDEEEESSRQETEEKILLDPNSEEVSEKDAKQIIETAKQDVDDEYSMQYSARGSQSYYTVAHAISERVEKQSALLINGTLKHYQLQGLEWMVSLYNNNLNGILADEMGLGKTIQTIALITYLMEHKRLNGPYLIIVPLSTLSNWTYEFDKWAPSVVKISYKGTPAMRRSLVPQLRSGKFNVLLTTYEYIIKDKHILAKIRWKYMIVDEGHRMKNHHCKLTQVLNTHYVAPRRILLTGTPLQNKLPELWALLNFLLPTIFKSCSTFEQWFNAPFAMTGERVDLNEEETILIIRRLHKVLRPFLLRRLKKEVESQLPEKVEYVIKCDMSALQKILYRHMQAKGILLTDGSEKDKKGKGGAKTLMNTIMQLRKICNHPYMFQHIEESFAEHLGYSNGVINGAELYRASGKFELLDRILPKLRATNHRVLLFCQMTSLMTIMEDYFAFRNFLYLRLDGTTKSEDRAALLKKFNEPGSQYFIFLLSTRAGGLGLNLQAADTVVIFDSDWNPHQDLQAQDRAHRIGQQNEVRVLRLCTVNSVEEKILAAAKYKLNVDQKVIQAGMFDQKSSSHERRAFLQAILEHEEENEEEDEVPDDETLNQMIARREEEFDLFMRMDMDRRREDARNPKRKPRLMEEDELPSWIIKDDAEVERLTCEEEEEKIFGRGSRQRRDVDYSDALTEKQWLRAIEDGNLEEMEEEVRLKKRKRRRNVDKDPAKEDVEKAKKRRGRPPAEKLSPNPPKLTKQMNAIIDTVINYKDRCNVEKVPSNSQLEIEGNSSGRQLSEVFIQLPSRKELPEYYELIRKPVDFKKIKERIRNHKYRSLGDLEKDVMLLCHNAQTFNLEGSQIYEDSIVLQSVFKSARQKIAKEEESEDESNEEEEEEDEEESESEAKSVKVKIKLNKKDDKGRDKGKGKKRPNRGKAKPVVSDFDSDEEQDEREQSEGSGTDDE

As for `O=C1CC[C@H](c2ccc(N3CCC(CN4CCC(NC(=O)C5(C6CCOCC6)CCN(c6cnnc(-c7ccccc7O)c6)CC5)CC45CCC5)CC3)cc2)C(=O)N1` (stereo partly drawn) [Example 161, N-{5-[(1-{4-[(3R)-2,6-dioxopiperidin-3-yl]phenyl}piperidin-4-yl)methyl]-5-azaspiro[3.5]nonan-8-yl}-1-[6-(2-hydroxyphenyl)pyridazin-4-yl]-4-(oxan-4-yl)piperidine-4-carboxamide], at SMARCA2, the DC50 was found to be 31.9 nM, the Dmax worked out at 70.8% and the “Fold Selectivity SMARCA4/2” value is 313. This compound also returned a Dmax at SMARCA4 of 32.4%.
Turning to `Cc1ccn(C2(C(=O)NC3CCN(CC4CCN(c5ccc([C@H]6CCC(=O)NC6=O)cc5)CC4)C4(CCC4)C3)CCN(c3cnnc(-c4ccccc4O)c3)CC2)n1` (stereo partly drawn) [Example 162, N-{5-[(1-{4-[(3R)-2,6-dioxopiperidin-3-yl]phenyl}piperidin-4-yl)methyl]-5-azaspiro[3.5]nonan-8-yl}-1-[6-(2-hydroxyphenyl)pyridazin-4-yl]-4-(3-methyl-1H-pyrazol-1-yl)piperidine-4-carboxamide], at SMARCA2, the DC50 is 2.62 nM, the Dmax was determined as 84.7% and the “Fold Selectivity SMARCA4/2” value stood at 10. Further, at SMARCA4, it took 25.9 nM to reach half-maximal degradation (DC50) and the Dmax came to 63.9%.
In the same order, the values of `O=C1CC[C@H](c2ccc(N3CCC(C(=O)N4CCC5(CC4)CN(CC4(c6ccccc6)CCN(c6cnnc(-c7ccccc7O)c6)CC4)C5)CC3)cc2)C(=O)N1` [Example 164, (3R)-3-(4-{4-[2-({1-[6-(2-hydroxyphenyl)pyridazin-4-yl]-4-phenylpiperidin-4-yl}methyl)-2,7-diazaspiro[3.5]nonane-7-carbonyl]piperidin-1-yl}phenyl)piperidine-2,6-dione] are 2.16 nM, 85%, 2, 3.77 nM and 86.6%.
In the same order, the values of `COc1cccc(C2(C(=O)NC3CCN(CC4CCN(c5ccc([C@H]6CCC(=O)NC6=O)cc5)CC4)C4(CCC4)C3)CCN(c3cnnc(-c4ccccc4O)c3)CC2)c1` (stereo partly drawn) [Example 169, N-{5-[(1-{4-[(3R)-2,6-dioxopiperidin-3-yl]phenyl}piperidin-4-yl)methyl]-5-azaspiro[3.5]nonan-8-yl}-1-[6-(2-hydroxyphenyl)pyridazin-4-yl]-4-(3-methoxyphenyl)piperidine-4-carboxamide] are 6.28 nM, 86.6%, 17, 104 nM and 62%.
Consider `O=C1CC[C@H](c2ccc(N3CCC(CNC4CCN(C(=O)C5(Oc6ccccc6)CCN(c6cnnc(-c7ccccc7O)c6)CC5)CC4)CC3)cc2)C(=O)N1` [Example 180, (3R)-3-[4-(4-{[(1-{1-[6-(2-hydroxyphenyl)pyridazin-4-yl]-4-phenoxypiperidine-4-carbonyl}piperidin-4-yl)amino]methyl}piperidin-1-yl)phenyl]piperidine-2,6-dione], for which, on SMARCA2, the DC50 came to 13.3 nM, the Dmax worked out at 77.2% and the “Fold Selectivity SMARCA4/2” value came out at 754. The Dmax on SMARCA4 was found to be 46.2%.
For the compound `O=C1CC[C@H](c2ccc(N3CCC(CN4CCC(NC(=O)C5(c6ccccn6)CCN(c6cnnc(-c7ccccc7O)c6)CC5)CC45CCC5)CC3)cc2)C(=O)N1` (stereo partly drawn) [Example 182, N-{5-[(1-{4-[(3R)-2,6-dioxopiperidin-3-yl]phenyl}piperidin-4-yl)methyl]-5-azaspiro[3.5]nonan-8-yl}-1-[6-(2-hydroxyphenyl)pyridazin-4-yl]-4-(pyridin-2-yl)piperidine-4-carboxamide], at SMARCA2, half-maximal degradation (DC50) was put at 2.76 nM, the Dmax amounted to 82.5% and the “Fold Selectivity SMARCA4/2” value amounted to 23. Also, on SMARCA4, half-maximal degradation (DC50) was put at 62.6 nM and the maximal degradation (Dmax) was 57.1%.
For `CC1(C)CC(NC(=O)C2(c3ccccc3)CCN(c3cnnc(-c4ccccc4O)c3)CC2)CCN1CC1CCN(c2ccc([C@H]3CCC(=O)NC3=O)cc2)CC1` (stereo partly drawn) [Example 183, N-{1-[(1-{4-[(3R)-2,6-dioxopiperidin-3-yl]phenyl}piperidin-4-yl)methyl]-2,2-dimethylpiperidin-4-yl}-1-[6-(2-hydroxyphenyl)pyridazin-4-yl]-4-phenylpiperidine-4-carboxamide], in that order: 6.43 nM, 80.7%, 39, 249 nM and 56.2%.
For `CCN(C(=O)C1(c2ccccc2)CCN(c2cnnc(-c3ccccc3O)c2)CC1)C1CCN(CC2CCN(c3ccc([C@H]4CCC(=O)NC4=O)cc3)CC2)CC1` [Example 184, N-{1-[(1-{4-[(3R)-2,6-dioxopiperidin-3-yl]phenyl}piperidin-4-yl)methyl]piperidin-4-yl}-N-ethyl-1-[6-(2-hydroxyphenyl)pyridazin-4-yl]-4-phenylpiperidine-4-carboxamide], in that order: 4.88 nM, 91.3%, 8, 37.6 nM and 80.7%.
As for `CCN(C(=O)C1(c2ccccc2)CCN(c2cnnc(-c3ccccc3O)c2)CC1)C1CCN(CCC2CCN(c3ccc([C@H]4CCC(=O)NC4=O)cc3)CC2)CC1` [Example 187, N-{1-[2-(1-{4-[(3R)-2,6-dioxopiperidin-3-yl]phenyl}piperidin-4-yl)ethyl]piperidin-4-yl}-n-ethyl-1-[6-(2-hydroxyphenyl)pyridazin-4-yl]-4-phenylpiperidine-4-carboxamide], at SMARCA2, the DC50 was found to be 1.3 nM, the Dmax was found to be 94.4% and the “Fold Selectivity SMARCA4/2” value amounted to 27. Also, on SMARCA4, it took 34.5 nM to reach half-maximal degradation (DC50) and the Dmax was determined as 73.1%.
In the same order, the values of `O=C1CC[C@H](c2ccc(N3CCC(CN4CCC5(CC4)CN(C(=O)C4(c6ccccc6)CCN(c6cnnc(-c7ccccc7O)c6)CC4)C5)CC3)nc2)C(=O)N1` [Example 189, (3R)-3-(6-{4-[(2-{1-[6-(2-hydroxyphenyl)pyridazin-4-yl]-4-phenylpiperidine-4-carbonyl}-2,7-diazaspiro[3.5]nonan-7-yl)methyl]piperidin-1-yl}pyridin-3-yl)piperidine-2,6-dione] are 1.7 nM, 93%, 9, 15.6 nM and 81.8%.
For `O=C1CC[C@H](c2ccc(N3CCC(CN4CC[C@@H](NC(=O)C5(c6ccccc6)CCN(c6cnnc(-c7ccccc7O)c6)CC5)CC45CCC5)CC3)cc2)C(=O)N1` [Example 190, N-[(8R)-5-[(1-{4-[(3R)-2,6-dioxopiperidin-3-yl]phenyl}piperidin-4-yl)methyl]-5-azaspiro[3.5]nonan-8-yl]-1-[6-(2-hydroxyphenyl)pyridazin-4-yl]-4-phenylpiperidine-4-carboxamide], in that order: 2.72 nM, 89.2%, 30, 81.9 nM and 58.8%.
In the same order, the values of `CN(C(=O)C1(c2ccccc2)CCN(c2cnnc(-c3ccccc3O)c2)CC1)C1CCN(CCC2CCN(c3ccc([C@H]4CCC(=O)NC4=O)cc3)CC2)CC1` [Example 192, N-{1-[2-(1-{4-[(3R)-2,6-dioxopiperidin-3-yl]phenyl}piperidin-4-yl)ethyl]piperidin-4-yl}-1-[6-(2-hydroxyphenyl)pyridazin-4-yl]-N-methyl-4-phenylpiperidine-4-carboxamide] are 4.58 nM, 88.8%, 28, 128 nM and 46.4%.
With `O=C1CC[C@H](c2ccc(N3CCC(CN4CCC5(CC4)CN(C(=O)C4(c6ccccc6)CCN(c6cnnc(-c7ccccc7O)c6)CC4)C5)CC3)cc2)C(=O)N1` [Example 194, (3R)-3-(4-{4-[(2-{1-[6-(2-hydroxyphenyl)pyridazin-4-yl]-4-phenylpiperidine-4-carbonyl}-2,7-diazaspiro[3.5]nonan-7-yl)methyl]piperidin-1-yl}phenyl)piperidine-2,6-dione], on SMARCA2, the DC50 was 3.24 nM, the Dmax was determined as 88.1% and the “Fold Selectivity SMARCA4/2” value was determined as 10. At SMARCA4, this compound returned a DC50 of 31.3 nM and a maximal degradation (Dmax) of 70.3%.
Take `COC1(C(=O)N(C)C2CCN(CCC3CCN(c4ccc([C@H]5CCC(=O)NC5=O)cc4)CC3)CC2)CCN(c2cnnc(-c3ccccc3O)c2)CC1` [Example 196, (r)-n-(1-(2-(1-(4-(2,6-dioxopiperidin-3-yl)phenyl)piperidin-4-yl)ethyl)piperidin-4-yl)-1-(6-(2-hydroxyphenyl)pyridazin-4-yl)-4-methoxy-n-methylpiperidine-4-carboxamide]: at SMARCA2, the DC50 stood at 14 nM, the Dmax was 74% and the “Fold Selectivity SMARCA4/2” value is recorded as 714. The compound further returned a Dmax on SMARCA4 of 28%.

A word on the DC50: it is the midpoint of the concentration-degradation curve. Read a high DC50 as degradation only at high concentration. One may read the Dmax as the largest share of the target that was removed.
